Experimental data reported in ChEMBL document CHEMBL5120786, “Metabolomics-assisted discovery of a new anticancer GLS-1 inhibitor chemotype from a nortopsentin-inspired library: From phenotype screening to target identification” (Eur J Med Chem, 2022).
The source made the active and inactive calls. The rule behind the calls is not given here.

Key:
MCF7 = experiment: Cytotoxicity against human MCF7 cells assessed as cell viability incubated for 72 hrs by MTT assay; type: functional, cell-based
HepG2 [1] = experiment: Cytotoxicity against human HepG2 cells assessed as cell viability incubated for 72 hrs by MTT assay; type: functional, cell-based
[2] = tested on: Panel NCI-60 (60 carcinoma cell lines); experiment: Anticancer activity against human NCI-60 cells assessed as cell growth inhibition incubated for 72 hrs by MTT assay; type: functional
MCF-10A = experiment: Cytotoxicity against human MCF-10A cells assessed as cell viability incubated for 72 hrs by MTT assay; type: functional, cell-based
HepG2 [3] = experiment: Inhibition of cell invasion in human HepG2 cells assessed as reduction in MMP-9 level at 2.5 uM after 72 hrs by densitometric analysis; type: functional; design: scale not given: the % may be the effect or the level left
MIA PaCa-2 = experiment: Cytotoxicity against human MIA PaCa-2 cells overexpressing GLS-1; type: functional, cell-based
HepG2 [4] = experiment: Inhibition of cell invasion in human HepG2 cells assessed as reduction in MMP-2 level at 2.5 uM after 8 hrs by densitometric analysis; type: functional; design: scale not given: the % may be the effect or the level left
HepG2 [5] = experiment: Upregulation of stearoyl-carnitine level in human HepG2 cells; type: functional, cell-based
HepG2 [6] = experiment: Induction of cell cycle arrest in human HepG2 cells assessed as decrease in cyclin-B1 expression at 1.5 uM measured after 8 to 24 hrs by Western blotting analysis relative to control; type: functional; design: scale not given: the % may be the effect or the level left; settings: time 8-24 hrs
[7] = Cytotoxicity against human U-87 MG cells overexpressing GLS-1; type: functional, cell-based, U-87MG ATCC
HepG2 [8] = experiment: Downregulation of spermidine level in human HepG2 cells; type: functional, cell-based
[9] = molecular target: T1, Glutaminase kidney isoform, mitochondrial (Homo sapiens, UniProt O94925); experiment: Inhibition of human recombinant GLS-1 by measuring glutamate production incubated for 1 hr by fluorescence based multimode plate reader method
T1 sequence (O94925 whole entry): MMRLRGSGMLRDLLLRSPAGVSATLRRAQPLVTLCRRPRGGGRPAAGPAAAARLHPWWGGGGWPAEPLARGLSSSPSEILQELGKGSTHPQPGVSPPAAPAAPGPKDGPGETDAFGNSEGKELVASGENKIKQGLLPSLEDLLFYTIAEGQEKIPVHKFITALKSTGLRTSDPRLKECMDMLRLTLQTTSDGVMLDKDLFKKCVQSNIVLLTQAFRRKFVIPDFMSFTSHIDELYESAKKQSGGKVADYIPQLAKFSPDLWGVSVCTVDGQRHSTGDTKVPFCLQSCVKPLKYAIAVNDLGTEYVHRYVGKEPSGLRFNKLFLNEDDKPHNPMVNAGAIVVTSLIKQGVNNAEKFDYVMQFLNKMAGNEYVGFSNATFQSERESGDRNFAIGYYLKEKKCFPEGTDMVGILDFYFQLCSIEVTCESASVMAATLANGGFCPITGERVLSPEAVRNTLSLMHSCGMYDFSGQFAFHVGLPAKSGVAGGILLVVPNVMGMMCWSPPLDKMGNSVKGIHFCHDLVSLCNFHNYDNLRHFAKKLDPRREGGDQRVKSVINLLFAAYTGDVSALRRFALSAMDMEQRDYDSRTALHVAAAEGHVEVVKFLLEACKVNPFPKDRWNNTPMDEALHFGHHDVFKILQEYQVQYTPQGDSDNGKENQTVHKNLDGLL

HepG2 [10] = experiment: Anticlonogenic activity against human HepG2 cells assessed as reduction of colony formation at 0.5 uM incubated for 14 days by crystal violet staining method; type: functional; design: scale not given: the % may be the effect or the level left; settings: time 14 day
HepG2 [11] = experiment: Induction of cell cycle arrest in human HepG2 cells assessed as decrease in cyclin-B1 expression at 1.5 uM measured after 72 hrs by Western blotting analysis relative to control; type: functional; design: scale not given: the % may be the effect or the level left
A-375 = experiment: Cytotoxicity against human A-375 cells overexpressing GLS-1; type: functional, cell-based
HepG2 [12] = experiment: Cytotoxicity against human HepG2 cells assessed as cell viability incubated for 72 hrs in presence of alpha-ketoglutarate by MTT assay; type: functional, cell-based; settings: HepG2, 72 h
HepG2 [13] = experiment: Downregulation of polyamine pathway in human HepG2 cells assessed as increase in intracellular ROS production; type: functional, cell-based
HepG2 [14] = experiment: Inhibition of cell invasion in human HepG2 cells assessed as reduction in MMP-9 level at 2.5 uM after 8 hrs by densitometric analysis; type: functional; design: scale not given: the % may be the effect or the level left
HepG2 [15] = experiment: Downregulation of c-Myc level in human HepG2 cells; type: functional, cell-based
HepG2 [16] = experiment: Inhibition of cell invasion in human HepG2 cells assessed as reduction in MMP-2 level at 2.5 uM after 72 hrs by densitometric analysis; type: functional; design: scale not given: the % may be the effect or the level left
[17] = molecular target: T2, Glutaminase liver isoform, mitochondrial (Homo sapiens, UniProt Q9UI32); experiment: Inhibition of human recombinant GLS-2 by measuring glutamate production incubated for 1 hr by fluorescence based multimode plate reader method
T2 sequence (Q9UI32 whole entry): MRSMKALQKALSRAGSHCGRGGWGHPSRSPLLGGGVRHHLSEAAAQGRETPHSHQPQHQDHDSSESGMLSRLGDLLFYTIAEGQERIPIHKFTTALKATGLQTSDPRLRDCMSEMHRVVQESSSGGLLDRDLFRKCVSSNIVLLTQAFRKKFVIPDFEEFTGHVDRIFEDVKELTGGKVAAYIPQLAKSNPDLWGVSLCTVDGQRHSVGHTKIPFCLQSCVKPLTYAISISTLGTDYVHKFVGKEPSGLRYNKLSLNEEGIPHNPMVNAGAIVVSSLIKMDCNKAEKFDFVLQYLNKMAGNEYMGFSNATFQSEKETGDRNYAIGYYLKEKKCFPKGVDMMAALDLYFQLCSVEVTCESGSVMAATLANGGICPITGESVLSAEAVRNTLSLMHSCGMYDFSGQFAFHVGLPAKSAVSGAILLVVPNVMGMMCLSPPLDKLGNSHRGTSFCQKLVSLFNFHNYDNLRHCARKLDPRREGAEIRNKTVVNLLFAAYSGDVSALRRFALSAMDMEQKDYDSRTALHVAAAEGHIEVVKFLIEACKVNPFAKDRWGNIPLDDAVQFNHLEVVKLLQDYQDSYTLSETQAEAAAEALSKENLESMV

HepG2 [18] = experiment: Inhibition of cell migration in human HepG2 cells assessed as reduction in wound closure at 1.5 uM measured after 24 to 48 hrs by wound healing assay based contrat-phase microscopic analysis; type: functional; settings: time 24-48 hrs
SAOS-2 = experiment: Cytotoxicity against human SAOS-2 cells overexpressing GLS-1; type: functional, cell-based
HepG2 [19] = experiment: Downregulation of GSH level in human HepG2 cells; type: functional, cell-based
A549 = experiment: Cytotoxicity against human A549 cells overexpressing GLS-1; type: functional, cell-based

Compound: COc1ccc2c(c1)c(-c1nc(-c3c[nH]c4ncccc34)cs1)cn2CCCN1CCOCC1
- Activity (MCF7): Active
- Activity (HepG2 [1]): Active
- GI50 ([2]; read-out: GI50): 480 nM
- GI50 ([2]; read-out: pGI50 (converted)): 4070 nM

Compound: COc1ccc2c(c1)c(-c1nc(-c3c[nH]c4ncccc34)cs1)cn2CCCCN1CCCCC1
- GI50 ([2]; read-out: GI50): 1180 nM
- GI50 ([2]; read-out: pGI50 (converted)): 1950 nM

Compound: COc1ccc2c(c1)c(-c1nc(-c3c[nH]c4ncccc34)cs1)cn2CCCCN1CCOCC1
- GI50 ([2]; read-out: GI50): 220 nM
- GI50 ([2]; read-out: pGI50 (converted)): 5250 nM

Compound: COc1ccc2c(c1)c(-c1nc(-c3cn(C)c4ncccc34)cs1)cn2CCCCN1CCCCC1
- Activity (MCF7): Active
- Activity (HepG2 [1]): Active
- GI50 ([2]; read-out: GI50): 1070 nM
- GI50 ([2]; read-out: pGI50 (converted)): 1910 nM

Compound: COc1ccc2c(c1)c(-c1nc(-c3cn(C)c4ncccc34)cs1)cn2CCN1CCCCC1
- Activity (MCF7): Active
- Activity (MCF-10A): Active

Compound: COc1ccc2c(c1)c(-c1nc(-c3c[nH]c4ncccc34)cs1)cn2CCCN1CCCCC1
- Activity (MCF7): Active
- GI50 ([2]; read-out: GI50): 1190 nM
- GI50 ([2]; read-out: pGI50 (converted)): 3310 nM
- Activity (MCF-10A): Active

Compound: Cn1cc(-c2csc(-c3cn(CCN4CCOCC4)c4ccc(F)cc34)n2)c2cccnc21
- Activity (MCF7): Active
- Activity (HepG2 [1]): Active
- GI50 ([2]; read-out: GI50): 1520 nM
- GI50 ([2]; read-out: pGI50 (converted)): 5620 nM

Compound: Cn1cc(-c2csc(-c3cn(CCCCN4CCCCC4)c4ccc(F)cc34)n2)c2cccnc21
- GI50 ([2]; read-out: GI50): 1460 nM
- GI50 ([2]; read-out: pGI50 (converted)): 16200 nM

Compound: Br.Fc1ccc2c(c1)c(-c1nc(-c3c[nH]c4ncccc34)cs1)cn2CCCCN1CCOCC1
- Activity (HepG2 [3]): 75%
- EC50 (MIA PaCa-2): 6.98 µM
- Activity (HepG2 [4]): 20%
- Activity (HepG2 [5]): Active
- Activity (HepG2 [6]): 50%
- EC50 (MCF7; MCF7, 72 h): 23.1 µM
- EC50 [7]: 3.63 µM
- Activity (HepG2 [8]): Active
- EC50 [9]: 3.96 µM
- Activity (HepG2 [10]): <=70%
- Activity (HepG2 [11]): 75%
- EC50 (A-375): 5.84 µM
- EC50 (HepG2 [1]; HepG2, 72 h): 3.25 µM
- EC50 (HepG2 [12]): 27.2 µM
- Activity (HepG2 [13]): Active
- Activity (HepG2 [14]): 50%
- Activity (HepG2 [15]): Active
- Activity (HepG2 [16]): 80%
- EC50 [17]: 12.9 µM
- EC50 (MCF-10A): 29.1 µM
- Activity (HepG2 [18]): Active
- EC50 (SAOS-2): 4.85 µM
- Activity (HepG2 [19]): Active
- EC50 (A549): 8.47 µM

Compound: Fc1ccc2c(c1)c(-c1nc(-c3c[nH]c4ncccc34)cs1)cn2CCCN1CCOCC1
- Activity (MCF-10A): Active

Compound: COc1ccc2c(c1)c(-c1nc(-c3c[nH]c4ncccc34)cs1)cn2CCN1CCCCC1
- Activity (MCF7): Active
- Activity (HepG2 [1]): Active
